Common to all, as to assay: KINOMEscan (ScanMAX) kinase profiling
What all share (format): binding

Experiment [1] deals with T1, panel of 468 kinases (Homo sapiens, UniProt Q8N4C8).
T1 construct: purchased KINOMEscan (ScanMAX) service
As to conditions: MINK; 1 μM; read-out: % control.

Experiment [2] concerns the target T2, panel of 468 kinases (Homo sapiens, UniProt Q32MK0).
T2 construct: purchased KINOMEscan (ScanMAX) service
T2 sequence (Q32MK0 1-819): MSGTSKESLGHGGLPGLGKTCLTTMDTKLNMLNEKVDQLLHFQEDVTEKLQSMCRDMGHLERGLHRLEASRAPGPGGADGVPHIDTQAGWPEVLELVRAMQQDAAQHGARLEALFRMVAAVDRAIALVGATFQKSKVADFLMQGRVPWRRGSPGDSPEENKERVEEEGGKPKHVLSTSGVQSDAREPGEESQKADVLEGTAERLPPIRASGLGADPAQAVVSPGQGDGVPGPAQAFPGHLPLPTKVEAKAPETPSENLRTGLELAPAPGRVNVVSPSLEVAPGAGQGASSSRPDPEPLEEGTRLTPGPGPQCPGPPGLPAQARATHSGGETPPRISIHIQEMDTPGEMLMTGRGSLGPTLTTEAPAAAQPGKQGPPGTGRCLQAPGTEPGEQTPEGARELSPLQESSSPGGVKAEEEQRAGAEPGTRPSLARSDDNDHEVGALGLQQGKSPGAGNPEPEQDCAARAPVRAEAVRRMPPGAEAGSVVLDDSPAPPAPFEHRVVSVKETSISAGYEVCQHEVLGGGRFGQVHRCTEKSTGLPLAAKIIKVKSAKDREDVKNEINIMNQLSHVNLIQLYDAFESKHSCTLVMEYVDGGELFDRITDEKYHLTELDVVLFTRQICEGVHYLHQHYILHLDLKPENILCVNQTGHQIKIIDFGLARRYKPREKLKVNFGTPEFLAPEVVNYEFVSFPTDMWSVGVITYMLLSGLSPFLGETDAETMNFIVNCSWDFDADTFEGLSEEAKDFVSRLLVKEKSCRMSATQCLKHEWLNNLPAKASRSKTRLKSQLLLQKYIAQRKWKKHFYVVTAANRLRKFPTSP
As to conditions: MLCK; 1 μM; read-out: % control.

The target of experiment [3] is T3, panel of 468 kinases (Homo sapiens, UniProt Q13153).
T3 construct: purchased KINOMEscan (ScanMAX) service
T3 sequence (Q13153 whole entry): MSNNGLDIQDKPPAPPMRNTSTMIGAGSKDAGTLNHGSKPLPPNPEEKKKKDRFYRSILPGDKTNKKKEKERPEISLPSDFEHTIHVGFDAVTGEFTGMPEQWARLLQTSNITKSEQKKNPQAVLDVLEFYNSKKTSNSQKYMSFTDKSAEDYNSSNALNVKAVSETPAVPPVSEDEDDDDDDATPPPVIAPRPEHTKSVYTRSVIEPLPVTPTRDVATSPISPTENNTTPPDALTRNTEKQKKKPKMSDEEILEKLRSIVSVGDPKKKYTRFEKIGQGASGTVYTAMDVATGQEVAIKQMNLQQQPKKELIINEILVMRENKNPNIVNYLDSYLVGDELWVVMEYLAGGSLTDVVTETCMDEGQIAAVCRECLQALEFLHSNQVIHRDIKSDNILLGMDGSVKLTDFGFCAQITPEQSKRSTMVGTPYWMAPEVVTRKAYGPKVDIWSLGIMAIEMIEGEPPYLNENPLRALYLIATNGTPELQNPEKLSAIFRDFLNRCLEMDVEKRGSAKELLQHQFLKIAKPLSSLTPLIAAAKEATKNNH
Conditions: PAK1; 1 μM; read-out: % control.

Experiment [4] addresses T4, panel of 468 kinases (Homo sapiens, UniProt Q96RR4).
T4 construct: purchased KINOMEscan (ScanMAX) service
As to conditions: CAMKK2; 1 μM; read-out: % control.

The target in experiment [5] is T5, panel of 468 kinases (Mycobacterium tuberculosis, UniProt P9WI81).
T5 construct: purchased KINOMEscan (ScanMAX) service
T5 sequence (P9WI81 whole entry): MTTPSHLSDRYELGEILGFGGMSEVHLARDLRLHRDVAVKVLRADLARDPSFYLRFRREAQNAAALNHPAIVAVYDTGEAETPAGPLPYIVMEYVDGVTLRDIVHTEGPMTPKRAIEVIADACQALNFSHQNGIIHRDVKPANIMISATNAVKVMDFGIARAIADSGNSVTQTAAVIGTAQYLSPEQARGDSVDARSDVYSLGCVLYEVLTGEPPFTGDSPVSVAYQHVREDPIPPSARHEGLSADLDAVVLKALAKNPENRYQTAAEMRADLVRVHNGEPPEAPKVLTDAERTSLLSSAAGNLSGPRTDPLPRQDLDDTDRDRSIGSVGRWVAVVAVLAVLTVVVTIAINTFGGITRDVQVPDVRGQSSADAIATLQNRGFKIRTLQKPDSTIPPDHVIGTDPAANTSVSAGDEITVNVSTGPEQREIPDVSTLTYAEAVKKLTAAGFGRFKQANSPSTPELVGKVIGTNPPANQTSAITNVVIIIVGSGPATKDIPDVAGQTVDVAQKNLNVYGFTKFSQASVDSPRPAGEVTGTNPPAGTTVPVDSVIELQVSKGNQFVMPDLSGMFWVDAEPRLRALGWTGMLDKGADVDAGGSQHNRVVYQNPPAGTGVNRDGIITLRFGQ
As to conditions: read-out: % control.

Experiment [6] has as its target T6, panel of 468 kinases (Homo sapiens, UniProt P00533, DEL746-750).
T6 construct: purchased KINOMEscan (ScanMAX) service
As to conditions: EGFR(E746-A750del); 1 μM; read-out: % control.

Experiment [7] addresses T7, panel of 468 kinases (Homo sapiens, UniProt Q59H18).
T7 construct: purchased KINOMEscan (ScanMAX) service
T7 sequence (Q59H18 1-835): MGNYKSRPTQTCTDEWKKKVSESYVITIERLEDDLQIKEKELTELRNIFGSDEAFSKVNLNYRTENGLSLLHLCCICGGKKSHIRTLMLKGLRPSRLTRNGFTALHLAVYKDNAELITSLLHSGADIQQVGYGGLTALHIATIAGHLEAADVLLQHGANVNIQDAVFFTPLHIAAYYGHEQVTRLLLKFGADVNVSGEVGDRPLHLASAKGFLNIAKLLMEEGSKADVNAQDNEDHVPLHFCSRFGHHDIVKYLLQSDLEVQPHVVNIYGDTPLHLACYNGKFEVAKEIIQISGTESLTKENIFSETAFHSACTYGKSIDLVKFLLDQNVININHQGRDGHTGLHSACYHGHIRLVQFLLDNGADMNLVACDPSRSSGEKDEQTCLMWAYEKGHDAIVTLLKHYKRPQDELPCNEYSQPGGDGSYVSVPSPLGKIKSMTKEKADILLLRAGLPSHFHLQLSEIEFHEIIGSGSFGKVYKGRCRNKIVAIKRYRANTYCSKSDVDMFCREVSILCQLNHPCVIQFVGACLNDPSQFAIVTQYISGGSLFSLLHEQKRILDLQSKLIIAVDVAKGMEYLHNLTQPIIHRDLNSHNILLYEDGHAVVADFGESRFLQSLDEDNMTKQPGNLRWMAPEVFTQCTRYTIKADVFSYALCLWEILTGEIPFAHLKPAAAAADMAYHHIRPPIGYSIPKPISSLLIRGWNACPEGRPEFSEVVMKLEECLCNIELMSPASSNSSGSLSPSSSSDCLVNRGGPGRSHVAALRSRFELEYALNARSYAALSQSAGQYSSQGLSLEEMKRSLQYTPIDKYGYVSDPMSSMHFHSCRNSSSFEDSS
Conditions: TNNI3K; 1 μM; read-out: % control.

Experiment [8] has as its target T8, panel of 468 kinases (Homo sapiens, UniProt P00519).
T8 construct: purchased KINOMEscan (ScanMAX) service
As to conditions: 1 μM, read-out: % control.

In experiment [9] the target is T9, panel of 468 kinases (Homo sapiens, UniProt Q13163).
T9 construct: purchased KINOMEscan (ScanMAX) service
T9 sequence (Q13163 1-448): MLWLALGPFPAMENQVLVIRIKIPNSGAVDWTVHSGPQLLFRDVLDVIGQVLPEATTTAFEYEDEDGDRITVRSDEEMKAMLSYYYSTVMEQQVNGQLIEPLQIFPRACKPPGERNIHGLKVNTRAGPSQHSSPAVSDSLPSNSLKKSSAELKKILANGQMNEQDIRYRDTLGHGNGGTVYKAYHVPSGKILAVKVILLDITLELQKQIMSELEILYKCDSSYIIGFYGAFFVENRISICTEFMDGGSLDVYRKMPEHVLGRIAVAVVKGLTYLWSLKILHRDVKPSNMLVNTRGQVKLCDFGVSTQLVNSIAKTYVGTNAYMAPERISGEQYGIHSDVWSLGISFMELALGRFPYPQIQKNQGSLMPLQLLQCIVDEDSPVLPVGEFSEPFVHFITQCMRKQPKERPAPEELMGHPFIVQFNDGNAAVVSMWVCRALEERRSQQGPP
Conditions: MEK5; 1 μM; read-out: % control.

Molecules are shown by their SMILES. Like-named read-outs stand apart in the source and are kept apart here.

T8 sequence (P00519 whole entry): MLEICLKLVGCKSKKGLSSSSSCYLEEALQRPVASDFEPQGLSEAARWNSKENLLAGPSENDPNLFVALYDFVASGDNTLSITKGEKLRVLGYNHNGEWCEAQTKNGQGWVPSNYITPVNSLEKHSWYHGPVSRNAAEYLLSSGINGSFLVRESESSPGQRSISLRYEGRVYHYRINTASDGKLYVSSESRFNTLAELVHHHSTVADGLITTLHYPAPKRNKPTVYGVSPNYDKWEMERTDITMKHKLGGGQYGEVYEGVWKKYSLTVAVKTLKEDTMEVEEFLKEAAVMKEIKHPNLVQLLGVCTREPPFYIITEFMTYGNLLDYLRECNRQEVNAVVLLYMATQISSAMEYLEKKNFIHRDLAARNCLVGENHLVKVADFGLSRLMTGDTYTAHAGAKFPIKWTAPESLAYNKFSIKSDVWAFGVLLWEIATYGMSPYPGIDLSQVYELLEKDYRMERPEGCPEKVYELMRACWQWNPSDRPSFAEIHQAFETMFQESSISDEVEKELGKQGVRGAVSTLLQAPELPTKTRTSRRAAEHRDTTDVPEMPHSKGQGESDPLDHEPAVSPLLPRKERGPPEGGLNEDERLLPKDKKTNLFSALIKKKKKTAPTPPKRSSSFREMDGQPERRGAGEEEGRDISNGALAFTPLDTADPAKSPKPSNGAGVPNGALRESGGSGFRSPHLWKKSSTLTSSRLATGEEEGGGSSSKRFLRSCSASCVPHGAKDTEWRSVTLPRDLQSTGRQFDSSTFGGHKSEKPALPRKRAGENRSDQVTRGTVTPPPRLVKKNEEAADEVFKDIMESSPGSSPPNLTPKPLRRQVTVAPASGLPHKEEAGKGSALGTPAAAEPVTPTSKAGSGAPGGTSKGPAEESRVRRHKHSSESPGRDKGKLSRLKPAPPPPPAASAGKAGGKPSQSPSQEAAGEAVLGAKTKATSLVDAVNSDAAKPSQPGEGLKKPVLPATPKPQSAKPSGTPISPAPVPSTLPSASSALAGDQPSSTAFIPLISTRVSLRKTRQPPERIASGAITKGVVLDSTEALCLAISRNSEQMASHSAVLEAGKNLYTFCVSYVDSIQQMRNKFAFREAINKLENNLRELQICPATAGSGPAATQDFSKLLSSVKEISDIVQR
T1 sequence (Q8N4C8 whole entry): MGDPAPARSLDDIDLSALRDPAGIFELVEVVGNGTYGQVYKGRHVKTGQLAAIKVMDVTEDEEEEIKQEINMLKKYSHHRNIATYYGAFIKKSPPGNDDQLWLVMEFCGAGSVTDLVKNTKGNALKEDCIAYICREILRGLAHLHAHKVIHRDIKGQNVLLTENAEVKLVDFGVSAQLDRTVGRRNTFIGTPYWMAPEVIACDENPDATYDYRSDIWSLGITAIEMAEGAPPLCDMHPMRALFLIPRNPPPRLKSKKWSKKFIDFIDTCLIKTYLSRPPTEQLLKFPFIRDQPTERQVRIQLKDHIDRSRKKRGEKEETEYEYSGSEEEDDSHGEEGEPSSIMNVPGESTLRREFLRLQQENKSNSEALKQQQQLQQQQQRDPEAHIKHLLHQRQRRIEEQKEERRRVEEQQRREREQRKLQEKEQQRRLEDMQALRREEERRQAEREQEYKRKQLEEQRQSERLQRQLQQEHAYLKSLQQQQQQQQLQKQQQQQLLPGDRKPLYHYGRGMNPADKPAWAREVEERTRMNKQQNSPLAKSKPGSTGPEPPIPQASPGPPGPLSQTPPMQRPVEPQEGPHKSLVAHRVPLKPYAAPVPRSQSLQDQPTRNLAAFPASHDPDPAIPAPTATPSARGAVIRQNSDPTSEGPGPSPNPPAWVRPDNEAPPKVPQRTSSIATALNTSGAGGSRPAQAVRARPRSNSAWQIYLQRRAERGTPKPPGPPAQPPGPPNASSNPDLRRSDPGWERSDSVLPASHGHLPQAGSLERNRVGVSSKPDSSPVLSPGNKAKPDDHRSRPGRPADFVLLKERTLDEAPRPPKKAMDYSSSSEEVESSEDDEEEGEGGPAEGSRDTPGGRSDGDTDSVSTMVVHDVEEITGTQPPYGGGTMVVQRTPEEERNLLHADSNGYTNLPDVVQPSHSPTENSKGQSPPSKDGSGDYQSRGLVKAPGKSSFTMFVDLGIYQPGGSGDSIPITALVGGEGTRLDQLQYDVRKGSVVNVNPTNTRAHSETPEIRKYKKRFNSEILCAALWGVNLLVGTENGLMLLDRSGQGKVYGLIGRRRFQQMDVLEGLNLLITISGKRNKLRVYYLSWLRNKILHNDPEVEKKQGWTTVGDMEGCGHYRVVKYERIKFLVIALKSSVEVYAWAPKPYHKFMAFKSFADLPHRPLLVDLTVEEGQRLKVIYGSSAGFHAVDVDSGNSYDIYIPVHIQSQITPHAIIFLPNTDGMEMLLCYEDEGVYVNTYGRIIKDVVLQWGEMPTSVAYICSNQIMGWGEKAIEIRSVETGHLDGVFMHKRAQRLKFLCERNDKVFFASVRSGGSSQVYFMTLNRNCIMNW
T4 sequence (Q96RR4 whole entry): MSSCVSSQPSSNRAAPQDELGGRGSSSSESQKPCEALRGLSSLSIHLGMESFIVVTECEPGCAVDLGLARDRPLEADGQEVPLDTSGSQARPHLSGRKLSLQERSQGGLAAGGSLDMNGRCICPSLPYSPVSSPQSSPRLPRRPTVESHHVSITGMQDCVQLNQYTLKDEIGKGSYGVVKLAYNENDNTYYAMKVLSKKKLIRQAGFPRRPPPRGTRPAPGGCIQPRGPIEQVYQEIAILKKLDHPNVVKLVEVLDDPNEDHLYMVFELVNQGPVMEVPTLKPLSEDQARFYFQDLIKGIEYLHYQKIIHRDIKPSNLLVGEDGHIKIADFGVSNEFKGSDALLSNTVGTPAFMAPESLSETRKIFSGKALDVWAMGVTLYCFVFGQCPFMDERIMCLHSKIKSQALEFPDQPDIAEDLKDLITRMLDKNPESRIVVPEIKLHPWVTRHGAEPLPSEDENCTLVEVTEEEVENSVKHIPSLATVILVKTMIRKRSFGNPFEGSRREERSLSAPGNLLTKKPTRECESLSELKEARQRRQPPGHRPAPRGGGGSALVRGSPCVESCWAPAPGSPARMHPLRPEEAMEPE

Take `CNc1nc(Nc2ccc(S(=O)(=O)N3CCC(N4CCOCC4)CC3)cc2OC)nc2[nH]cc(Cl)c12` [Compound 12, 5-chloro-N2-(2-methoxy-4-((4-morpholinopiperidin-1-yl)sulfonyl)phenyl)-N4-methyl-7H-pyrrolo[2,3-d]pyrimidine-2,4-diamine]: the remaining binding at 1 µM at panel of 468 kinases [1] came out at 75%; at panel of 468 kinases [2], 100%; at panel of 468 kinases [3], 100%; at panel of 468 kinases [4] it was 68%; at panel of 468 kinases [5], 93%; at panel of 468 kinases [6], 75%. In addition, the remaining binding at 1 µM on panel of 468 kinases [7] is 100%; on panel of 468 kinases [8] (ABL1-nonphosphorylated), 80%; at panel of 468 kinases [8] (ABL1-phosphorylated), 72%; at panel of 468 kinases [9] it was 86%.
Take `CNc1nc(Nc2ccc(C(=O)N3CCC(N4CCOCC4)CC3)c3c2OCO3)nc2[nH]cc(Cl)c12` [Compound 75, (7-((5-chloro-4-(methylamino)-7H-pyrrolo[2,3-d]pyrimidin-2-yl)amino)benzo[d][1,3]dioxol-4-yl)(4-morpholinopiperidin-1-yl)methanone]: the remaining binding at 1 µM is 18% at panel of 468 kinases [1]; 35% on panel of 468 kinases [2]; 100% on panel of 468 kinases [3]; 42% on panel of 468 kinases [4]; 68% at panel of 468 kinases [5]; 94% at panel of 468 kinases [6]. The remaining binding at 1 µM at panel of 468 kinases [7] worked out at 100%; at panel of 468 kinases [8] (ABL1-nonphosphorylated), 94%; at panel of 468 kinases [8] (ABL1-phosphorylated), 80%; at panel of 468 kinases [9], 47%.
For the compound `CNc1nc(Nc2ccc(P3(=O)CCN(C4CCOCC4)CC3)cc2OC)nc2[nH]cc(Cl)c12` [Compound 77, 4-(4-((5-chloro-4-(methylamino)-7H-pyrrolo[2,3-d]pyrimidin-2-yl)amino)-3-methoxyphenyl)-1-(tetrahydro-2H-pyran-4-yl)-1,4-azaphosphinane 4-oxide], the remaining binding at 1 µM on panel of 468 kinases [1] came to 63%; at panel of 468 kinases [2], 98%; at panel of 468 kinases [3], 100%; on panel of 468 kinases [4], 25%; on panel of 468 kinases [5], 100%; on panel of 468 kinases [6] it was 87%. The remaining binding at 1 µM was determined as 100% on panel of 468 kinases [7], 92% on panel of 468 kinases [8] (ABL1-nonphosphorylated), 80% at panel of 468 kinases [8] (ABL1-phosphorylated) and 61% on panel of 468 kinases [9].

Values taken from patent US12479847B2 (DANA-FARBER CANCER INSTITUTE, INC., priority 2019, dated 2025).
